Assay results from paper PMC8778818, “Synthesis, Structural Characterization and Anticancer Activity of New 5-Trifluoromethyl-2-thioxo-thiazolo[4,5-d]pyrimidine Derivatives” (Pharmaceuticals, 2022).

Legend:
MCF-7/WT = assay: MTT cell viability assay, MCF-7/WT; assay type: cell-based; conditions: Homo sapiens, MCF7, 72 h, mean ± SD
Method: (§1) Twelve compounds (2a-e, 3a-d and 4a-c) at a concentration range of 50–5000 μM were tested for their antiproliferative potential against four human cancer cell lines (A375—melanotic melanoma, C32—amelanotic melanoma, DU145—prostate cancer androgen-independent, MCF-7/WT—breast adenocarcinoma) and two normal cell lines: Chinese Hamster Ovary (CHO-K1) and immortalized human keratinocytes from histologically normal skin (HaCaT).
(§2) To determine the antiproliferative activity of newly synthesized compounds, the following cell lines were used: human melanotic melanoma cell line (A375), human amelanotic melanoma cell line (C32), human breast adenocarcinoma cell line (MCF-7/WT), human prostate cancer androgen-independent (DU145) and two normal cell lines: hamster ovarian (CHO-K1) and immortalized human keratinocytes from histologically normal skin (HaCaT). The cells were obtained from the cell line bank of the Department of Molecular and Cellular Biology, Wroclaw Medical University. A375, C32, MCF-7/WT, DU145 and HaCaT cells were grown in a monolayer cultured in Dulbecco’s Modified Eagle’s Medium (DMEM, Sigma-Aldrich, Poznań, Poland), supplemented with 10% of fetal bovine serum (FBS, Gibco, Paisley, UK) and 1% of antibiotics (penicillin/streptomycin, Sigma-Aldrich) and CHO-K1 were grown in HAM’s F-12 medium (Sigma-Aldrich), supplemented with 10% fetal bovine serum (FBS, Gibco) and 1% of antibiotics (penicillin/streptomycin, Sigma-Aldrich). Cell lines were cultured in the polystyrene flasks 25 or 75 cm^2 (Thermo Fisher Scientific, Waltham, MA, USA), which were stored in 37 °C and 5% CO2 in a humidified 95% atmosphere (SteriCult, Thermo Scientific, Alab). The cell medium was exchanged twice a week. The exponentially growing cells were used throughout the experiments. The cells were rinsed with phosphate-buffered saline (PBS, Sigma-Aldrich) and trypsinized by Trypsin-EDTA 0.25% solution (Sigma-Aldrich).
(§3) The influence of the compounds was performed in a monolayer culture on cancer and normal cells. Compounds were initially dissolved in DMSO; further dilutions of the compound were performed in Dulbecco’s Modified Eagle’s Medium supplemented with 10% FBS. Compounds were tested in a 50–5000 µM concentration range. In the in vitro experiments, the concentrations of DMSO in the final solution of the compounds were used 0.05%; 0.1%; 0.5%; 1%, respectively.
(§4) Cell viability was determined using the MTT colorimetric assay. All cell lines were seeded into 96-well plates to a density of 3 × 10^4 cells/well. After 24 h, the culture supernatants were removed and appropriate dilutions of compounds in the culture medium (200 µL/well) were added to the cells’ monolayer cultures and incubated for an additional 72 h. After 72 h of exposition to the compounds and the removal of the culture medium, cell viability was determined by reducing the yellow dye 3-(4,5-dimethyl-2-thiazol)-2,5-diphenyl-2H-tetrazolium bromide (MTT assay, Sigma Saint Louis, MO, USA; In Vitro Toxicology Assay) to a blue formazan product. The absorbance of the resulting solutions in three duplicate experiments was measured at the wavelength of 560 nm in a microplate reader (EnSpire, Perkin Elmer, Kraków, Poland). MTT assay is a colorimetric method that estimates the rate of metabolism in viable cells. Absorbance is directly proportional to the number of viable cells. All the experiments were performed three times and the mean absorbance values were calculated. The methodology for the evaluation of the growth of human cancer and normal cells was described previously. The cell viability in each group was expressed as a percentage of control (untreated) cells.

A375 = assay: MTT cell viability assay, A375; assay type: cell-based, human; conditions: A375, MTT, mean ± SD
Method: as §1, §2, §3, §4

DU145 = assay: MTT cell viability assay, DU145; assay type: cell-based, human; conditions: for IC50: Homo sapiens, DU-145, DU145, MTT, 72 h, mean ± SD; for cytotoxic effect (in words): DU145, 72 h
Method: as §1, §2, §3, §4

CHO-K1 = assay: MTT cell viability assay, CHO-K1; assay type: cell-based, Chinese Hamster; conditions: CHO-K1 normal cells, 72 h; for IC50: Cricetulus griseus, MTT, mean ± SD
Method: as §1, §2, §3, §4

[1] = system: A375, C32, DU145, MCF-7/WT, CHO-K1 and HaCaT cell lines; assay: MTT cell viability assay, all six cell lines; assay type: cell-based; conditions: mean over the six cell lines; read-out: Mean A: the mean IC50 for the given compound
Method: as §1, §2, §3, §4

C32 = assay: MTT cell viability assay, C32; assay type: cell-based, human; conditions: for IC50: Homo sapiens, C32, MTT, 72 h, mean ± SD; for cytotoxic effect (in words): C32, 72 h
Method: as §1, §2, §3, §4

HaCaT = assay: MTT cell viability assay, HaCaT; assay type: cell-based, human; conditions: 72 h; for IC50: Homo sapiens, HaCaT normal cells, MTT, mean ± SD; for cytotoxic effect (in words): HaCaT human keratinocytes
Method: as §1, §2, §3, §4

HOP-92 = system: HOP-92; set-up: method as in PMID 579132; conditions: NS Cell Lung C. HOP-92, 10^−5 M one dose; cited from earlier work
[2] = system: 60 human cancer cell lines; set-up: method as in PMID 579132; conditions: cited from earlier work; for Mean Growth %: 10^−5 M one dose, mean over the panel, analogs I–VII; for N2: number of cell lines giving positive log TGI (≤−4.01): of N = 59 tested cell lines; for N2: number of cell lines giving positive log TGI (≤−4.01) / log GI50 Range / log LC50 Range / log TGI Range: analogs IV and V; for log GI50 Range / log LC50 Range / log TGI Range: values > −4.00 excluded
UO-31 = system: UO-31; set-up: method as in PMID 579132; conditions: Renal C. UO-31, 10^−5 M one dose; cited from earlier work
RPMI-8226 = system: RPMI-8226; set-up: method as in PMID 579132; conditions: Leukemia, 10^−5 M one dose; cited from earlier work
UACC-62 = system: UACC-62; set-up: method as in PMID 579132; conditions: Melanoma UACC-62, 10^−5 M one dose; cited from earlier work
SF-295 = system: SF-295; set-up: method as in PMID 579132; conditions: CNS C. SF-295, 10^−5 M one dose; cited from earlier work
CAKI-1 = system: CAKI-1; set-up: method as in PMID 579132; conditions: Renal C. CAKI-1, 10^−5 M one dose; cited from earlier work

IC50 (MCF-7/WT) [µM]	IC50 (A375; Homo sapiens, A-375, 72 h) [µM]	IC50 (DU145) [µM]	SMILES	IC50 (CHO-K1) [µM]	IC50 [1] [µM]	IC50 (C32) [µM]	IC50 (HaCaT) [µM]	Mean Growth % [2] [%]	also measured
519 ± 21.1	429 ± 17.5	251 ± 10.2	CCn1c(=S)sc2c(=O)[nH]c(C(F)(F)F)nc21 [Compound 2a, 3-ethyl-2-thioxo-5-(trifluoromethyl)-2,3-dihydro[1, 3]thiazolo[4,5-d]pyrimidin-7(6H)-one]	521 ± 21.2	462	434 ± 17.7	615 ± 25		
420 ± 16.5	450 ± 17.6	163 ± 6.4	O=c1[nH]c(C(F)(F)F)nc2c1sc(=S)n2-c1ccccc1F [Compound 2c, 3-(2-fluoropheny)l-2-thioxo-5-(trifluoromethyl)-2,3-dihydro[1, 3]thiazolo[4,5-d]pyrimidin-7(6H)-one]	525 ± 20.6	411	364 ± 14.3	543 ± 21.3		melting point: 211 to 212 °C
519 ± 21.9	531 ± 22.4	121 ± 5.1	O=c1[nH]c(C(F)(F)F)nc2c1sc(=S)n2-c1cccc(F)c1 [Compound 2d, 3-(3-fluorophenyl)-2-thioxo-5-(trifluoromethyl)-2,3-dihydro[1, 3]thiazolo[4,5-d]pyrimidin-7(6H)-one]	553 ± 23.3	472	384 ± 16.2	725 ± 30.6		
434 ± 15.5	379 ± 13.5	139 ± 5	O=c1[nH]c(C(F)(F)F)nc2c1sc(=S)n2-c1ccc(F)cc1 [Compound 2e, 3-(4-fluoropheny)l-2-thioxo-5-(trifluoromethyl)-2,3-dihydro[1, 3]thiazolo[4,5-d]pyrimidin-7(6H)-one]	483 ± 17.2	337	355 ± 12.6	234 ± 8.3		melting point: 259 to 260 °C
356 ± 9.1	142 ± 3.6	72.5 ± 1.9	CCn1c(=S)sc2c(Cl)nc(C(F)(F)F)nc21 [Compound 3a, 7-chloro-3-ethyl-5-(trifluoromethyl)[1, 3]thiazolo[4,5-d]pyrimidine-2(3H)-thione]	122 ± 3.1	145	89.3 ± 2.3	88.3 ± 2.3		melting point: 66 to 67 °C; cytotoxic effect (in words) (DU145): strong cytotoxic effect; cytotoxic effect (in words) (C32): strong cytotoxic effect; cytotoxic effect (in words) (HaCaT): strong cytotoxic effect
248 ± 6	108 ± 2.6	168 ± 4	Fc1ccccc1-n1c(=S)sc2c(Cl)nc(C(F)(F)F)nc21 [Compound 3c, 7-chloro-(2-fluoropheny)-5-(trifluoromethyl)[1, 3]thiazolo[4,5-d]pyrimidine-2(3H)-thione]	93.8 ± 2.3	124	86.4 ± 2.1	37.8 ± 0.9		cytotoxic effect (in words) (CHO-K1): strong cytotoxic effect; cytotoxic effect (in words) (C32): strong cytotoxic effect; cytotoxic effect (in words) (HaCaT): strong cytotoxic effect
540 ± 17.9	103	126 ± 4.2	Fc1cccc(-n2c(=S)sc3c(Cl)nc(C(F)(F)F)nc32)c1 [Compound 3d, 7-chloro-(3-fluoropheny)-5-(trifluoromethyl)[1, 3]thiazolo[4,5-d]pyrimidine-2(3H)-thione]	512 ± 17	288	87.4 ± 2.9	360 ± 11.9		IC50 (A375; 72 h): 104 ± 3.4 µM; cytotoxic effect (in words) (CHO-K1): non-toxic; cytotoxic effect (in words) (C32): strong cytotoxic effect; cytotoxic effect (in words) (HaCaT): non-toxic
144 ± 4.4	114 ± 3.5	96.9 ± 3	CNc1nc(C(F)(F)F)nc2c1sc(=S)n2-c1ccccc1 [Compound 4a, 7-(methylamino)-3-phenyl-5-(trifluoromethyl)[1, 3]thiazolo[4,5-d]pyrimidine-2(3H)-thione]	48.5 ± 1.5	214	132 ± 4.1	748 ± 22.9		melting point: 197 to 198 °C; cytotoxic effect (in words) (DU145): high cytotoxicity; cytotoxic effect (in words) (CHO-K1): high cytotoxicity
			O=c1[nH]c(-c2cccnc2)nc2c1sc(=S)n2-c1ccccc1 [III]					105.59	Growth % of the most sensitive cell line (HOP-92): 73.81%
			O=c1[nH]c(-c2ccc(F)cc2)nc2c1sc(=S)n2-c1ccccc1 [II]					106.11	Growth % of the most sensitive cell line (HOP-92): 55.97%
			S=c1sc2c(Cl)nc(-c3cccnc3)nc2n1-c1ccccc1 [IV]					20.78	log TGI Δ ([2]; logarithmic difference between most sensible cell line and MG_MID, analog IV): 1.12; N2: number of cell lines giving positive log TGI (≤−4.01) [2]: 7; log GI50 Range [2]: −5.28 to −6.26 log M; log LC50 Range [2]: −5.17 to −5.26 log M; log TGI Range [2]: −4.52 to −5.51 log M; Growth % of the most sensitive cell line (UO-31): −85.59%
			O=c1[nH]c(-c2ccc(Cl)cc2)nc2c1sc(=S)n2-c1ccccc1 [I]					80.85	Growth % of the most sensitive cell line (RPMI-8226): 29.76%
			Fc1ccc(CNc2nc(-c3ccc(F)cc3)nc3c2sc(=S)n3-c2ccccc2)cc1 [VII]					89.50	Growth % of the most sensitive cell line (UACC-62): 54.52%
			Fc1ccc(CNc2nc(-c3ccc(Cl)cc3)nc3c2sc(=S)n3-c2ccccc2)cc1 [VI]					48.46	Growth % of the most sensitive cell line (SF-295): −43.11%
			Fc1ccc(-c2nc(Cl)c3sc(=S)n(-c4ccccc4)c3n2)cc1 [V]						N2: number of cell lines giving positive log TGI (≤−4.01) [2]: 49; log GI50 Range [2]: −4.23 to −8.00 log M; log LC50 Range [2]: −4.07 to −5.42 log M; log TGI Range [2]: −4.10 to −5.90 log M; Growth % of the most sensitive cell line (CAKI-1): −88.95%
